Reference: ChEMBL document CHEMBL6083278, “Unnatural Amino Acids: Strategies, Designs, and Applications in Medicinal Chemistry and Drug Discovery” (J Med Chem, 2024)
≈ marks a conversion by molar mass, not a printed value. Bridge positions count the residues as written; N and C are the ends. Square brackets hold non-standard residues; d marks the D form. Peptide text beside a SMILES is read from it. * marks the point of attachment. Bip = N[C@@H](Cc1ccc(-c2ccccc2)cc1)C(=O)O; dPhe(4-I) = N[C@H](Cc1ccc(I)cc1)C(=O)O; NMe2Val = CC(C)[C@@H](C(=O)*)N(C)C; NMeI = CC[C@H](C)[C@H](NC)C(=O)O; NMeT = CN[C@H](C(=O)O)[C@@H](C)O; 4Pal = N[C@@H](Cc1ccncc1)C(=O)O; Tic = O=C(O)[C@@H]1Cc2ccccc2CN1; NMeL = CN[C@@H](CC(C)C)C(=O)O; S5 = C=CCCC[C@](C)(N)C(=O)O; Hiv = CC(C)[C@H](O)C(=O)O; NMeS = CN[C@@H](CO)C(=O)O; Octanoyl = CCCCCCCC(=O)*; dNMeA = CN[C@H](C)C(=O)O; Sar = CNCC(=O)O

Experiments:
[1] = Inhibition of GABA-A receptor (unknown origin); parameters: species or system Homo sapiens
Melanocortin receptor 3 = Melanocortin receptor 3 (Homo sapiens, UniProt P41968); test: Inhibition of MC3R (unknown origin)
[2] = molecular target: G-protein coupled receptor 52 (Homo sapiens, UniProt Q9Y2T5); test: Agonist activity at human GPR52 expressed in CHO cells assessed as increase in intracellular cAMP level incubated for 30 mins by Alphascreen assay; format: functional, cell-based
Replicase polyprotein 1a = Replicase polyprotein 1a (Severe acute respiratory syndrome-related coronavirus, UniProt P0C6U8); test: Inhibition of SARS-CoV MPro using Dabcyl-KTSAVLQSGFRKM-E(Edans)-NH2 as substrate preincubated for 15 mins followed by substrate addition measured after 30 mins by FRET assay
Candida albicans = test: Antifungal activity against Candida albicans ATCC 10231 assessed as fungal growth inhibition; format: functional, organism-based
Cryptococcus neoformans = test: Antifungal activity against Cryptococcus neoformans ATCC 32045 assessed as inhibition of fungal growth incubated for 72 hrs by broth microdilution method; format: functional
Enterococcus faecalis = test: Antibacterial activity against Enterococcus faecalis ATCC 29212 assessed as bacterial growth inhibition by agar diffusion assay; format: functional
Staphylococcus aureus [3] = test: Antibacterial activity against Staphylococcus aureus assessed as reduction in microbial growth by CLSI based broth microdilution method; format: functional
Acinetobacter baumannii [4] = test: Antibacterial activity against Acinetobacter baumannii ATCC 17978 assessed as reduction in microbial growth after 24 hrs by CLSI based Mueller-Hinton broth assay; format: functional
Escherichia coli [5] = test: Antimicrobial activity against Escherichia coli ATCC 25922 assessed as reduction in microbial growth after 24 hrs by CLSI based Mueller-Hinton broth assay; format: functional
Pseudomonas aeruginosa [6] = test: Antimicrobial activity against Pseudomonas aeruginosa ATCC 27853 assessed as reduction in microbial growth after 24 hrs by CLSI based Mueller-Hinton broth assay; format: functional
Klebsiella pneumoniae = test: Antimicrobial activity against Klebsiella pneumoniae ATCC 13882 assessed as reduction in microbial growth after 24 hrs by CLSI based Mueller-Hinton broth assay; format: functional
Acinetobacter baumannii [7] = test: Antibacterial activity against Acinetobacter baumannii ATCC 19606 assessed as reduction in microbial growth after 16 hrs by broth microdilution method; format: functional
Escherichia coli [8] = test: Antibacterial activity against Escherichia coli K12 assessed as reduction in bacterial growth incubated for 16 hrs by Broth micro-dilution assay; format: functional
Staphylococcus aureus [9] = test: Antibacterial activity against Staphylococcus aureus ATCC 25923 assessed as reduction in bacterial growth incubated for 18 to 20 hrs by broth microdilution assay; format: functional; conditions: time 18-20 hrs
Pseudomonas aeruginosa [10] = test: Antibacterial activity against Pseudomonas aeruginosa PAO1 assessed as bacterial growth inhibition by CLSI protocol based microdilution method; format: functional
Mu-type opioid receptor = Mu-type opioid receptor (Homo sapiens, UniProt P35372); test: Agonist activity at MOR (unknown origin); format: functional
[11] = molecular target: Amyloid-beta precursor protein (Homo sapiens) (UniProt P05067); test: Inhibition of amyloid beta42 (unknown origin) aggregation at 10 uM measured after 5 mins by ThT fluorescence based assay relative to control
HeLa = test: Antiproliferative activity against human HeLa cells assessed as reduction in cell viability by MTT assay; format: functional, cell-based
[12] = Half life in human plasma; format: ADME, cell-free
[13] = molecular target: Tyrosine-protein kinase FRK (Homo sapiens, UniProt P42685); test: Inhibition of FRK (unknown origin)
Escherichia coli [14] = test: Antibacterial activity against Escherichia coli ATCC 25922 assessed as bacterial growth inhibition; format: functional
[15] = Binding affinity to SETD8 (unknown origin) assessed as dissociation constant; parameters: species or system Homo sapiens

Chain of Melanocortin receptor 3 (P41968 whole entry): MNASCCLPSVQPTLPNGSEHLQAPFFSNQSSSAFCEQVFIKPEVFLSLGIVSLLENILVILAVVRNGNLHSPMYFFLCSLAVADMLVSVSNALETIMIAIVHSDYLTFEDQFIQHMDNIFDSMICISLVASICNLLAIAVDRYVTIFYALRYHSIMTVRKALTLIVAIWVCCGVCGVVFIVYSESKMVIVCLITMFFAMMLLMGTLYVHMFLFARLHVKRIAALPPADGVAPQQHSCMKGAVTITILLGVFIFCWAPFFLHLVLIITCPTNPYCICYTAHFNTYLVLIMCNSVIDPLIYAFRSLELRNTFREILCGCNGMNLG
Chain of Mu-type opioid receptor (P35372 whole entry): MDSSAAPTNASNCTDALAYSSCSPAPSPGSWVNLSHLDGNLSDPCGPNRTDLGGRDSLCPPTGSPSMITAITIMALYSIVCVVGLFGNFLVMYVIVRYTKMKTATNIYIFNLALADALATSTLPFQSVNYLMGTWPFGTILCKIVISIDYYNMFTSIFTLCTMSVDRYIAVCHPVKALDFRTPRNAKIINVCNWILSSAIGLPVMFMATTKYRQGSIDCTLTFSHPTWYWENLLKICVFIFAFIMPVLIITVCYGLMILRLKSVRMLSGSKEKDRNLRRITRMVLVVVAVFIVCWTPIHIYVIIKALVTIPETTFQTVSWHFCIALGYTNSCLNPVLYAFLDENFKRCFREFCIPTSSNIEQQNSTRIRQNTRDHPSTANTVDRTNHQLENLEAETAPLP
Chain of Amyloid-beta precursor protein (Homo sapiens) (P05067 whole entry): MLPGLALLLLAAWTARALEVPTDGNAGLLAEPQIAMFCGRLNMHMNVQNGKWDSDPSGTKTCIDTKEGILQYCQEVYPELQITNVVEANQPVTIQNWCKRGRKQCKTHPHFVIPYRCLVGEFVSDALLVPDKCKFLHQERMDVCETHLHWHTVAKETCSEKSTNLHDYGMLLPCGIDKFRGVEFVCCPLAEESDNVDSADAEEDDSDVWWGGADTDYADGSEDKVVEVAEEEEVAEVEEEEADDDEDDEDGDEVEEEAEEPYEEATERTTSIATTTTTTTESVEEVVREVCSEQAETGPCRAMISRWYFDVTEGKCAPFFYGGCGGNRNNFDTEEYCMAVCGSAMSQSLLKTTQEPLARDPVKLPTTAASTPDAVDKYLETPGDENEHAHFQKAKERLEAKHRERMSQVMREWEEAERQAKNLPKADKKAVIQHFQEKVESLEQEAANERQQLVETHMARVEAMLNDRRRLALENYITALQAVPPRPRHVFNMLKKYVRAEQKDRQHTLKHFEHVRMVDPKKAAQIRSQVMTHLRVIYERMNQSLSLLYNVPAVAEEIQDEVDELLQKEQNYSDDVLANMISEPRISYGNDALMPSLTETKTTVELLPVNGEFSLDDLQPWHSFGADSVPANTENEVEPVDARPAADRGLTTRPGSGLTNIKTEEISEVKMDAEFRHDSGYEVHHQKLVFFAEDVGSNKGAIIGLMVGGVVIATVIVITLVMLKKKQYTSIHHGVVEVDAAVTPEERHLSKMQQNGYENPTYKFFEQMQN
Chain of G-protein coupled receptor 52 (Q9Y2T5 whole entry): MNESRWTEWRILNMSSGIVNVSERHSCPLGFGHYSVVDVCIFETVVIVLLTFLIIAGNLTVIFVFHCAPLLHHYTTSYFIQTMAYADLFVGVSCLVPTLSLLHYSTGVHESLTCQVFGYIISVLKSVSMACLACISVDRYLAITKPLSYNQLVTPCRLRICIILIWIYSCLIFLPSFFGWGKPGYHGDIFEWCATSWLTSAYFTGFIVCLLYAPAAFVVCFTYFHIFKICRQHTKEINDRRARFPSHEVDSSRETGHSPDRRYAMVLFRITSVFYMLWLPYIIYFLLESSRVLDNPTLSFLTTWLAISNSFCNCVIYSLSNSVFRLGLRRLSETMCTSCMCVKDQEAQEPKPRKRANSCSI
Chain of Tyrosine-protein kinase FRK (P42685 whole entry): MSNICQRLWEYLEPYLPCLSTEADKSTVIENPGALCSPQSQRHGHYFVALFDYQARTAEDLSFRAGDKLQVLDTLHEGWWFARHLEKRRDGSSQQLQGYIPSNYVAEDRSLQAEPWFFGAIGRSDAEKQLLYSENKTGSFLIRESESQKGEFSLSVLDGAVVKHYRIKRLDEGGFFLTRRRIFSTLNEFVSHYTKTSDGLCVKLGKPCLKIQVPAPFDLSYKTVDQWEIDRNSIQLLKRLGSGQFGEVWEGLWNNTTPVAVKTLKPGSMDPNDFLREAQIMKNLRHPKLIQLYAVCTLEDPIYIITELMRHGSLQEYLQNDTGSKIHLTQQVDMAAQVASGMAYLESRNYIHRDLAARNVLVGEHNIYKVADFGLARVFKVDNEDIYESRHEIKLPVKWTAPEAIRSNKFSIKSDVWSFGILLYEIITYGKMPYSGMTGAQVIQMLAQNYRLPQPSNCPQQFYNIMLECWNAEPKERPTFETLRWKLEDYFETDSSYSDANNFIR

N[C@H]1C[C@@H](C(=O)O)C[C@@H]1F
IC50 [1]: 50 nM

CC(=O)N[C@@H](Cc1cnc[nH]1)C(=O)N[C@H](Cc1ccccc1)C(=O)N[C@@H](CCCN=C(N)N)C(=O)N[C@@H](Cc1c[nH]c2ccccc12)C(N)=O
IC50 (Melanocortin receptor 3): 560 nM

CSCC[C@H](NC(=O)[C@@H]1CCCN1C(=O)CNC(=O)[C@H](CCCCN)NC(=O)[C@H](Cc1cnc[nH]1)NC(=O)[C@H](CO)NC(=O)[C@H](CC(C)C)NC(=O)[C@H](CCCNC(=N)N)NC(=O)[C@@H]1CCCN1C(=O)[C@H](CCCNC(=N)N)NC(=O)[C@@H](N)CCC(N)=O)C(=O)N1CCC[C@H]1C(=O)N[C@@H](Cc1ccccc1)C(=O)O
EC50 [2]: 1.4 nM

N[C@H]1C=C(C(=O)O)C[C@@H]1F
IC50 [1]: 20 nM

O=C[C@H](C[C@@H]1CCNC1=O)NC(=O)[C@H](Cc1cccc(F)c1)NC(=O)c1cc2ccccc2[nH]1
IC50 (Replicase polyprotein 1a): 40 nM

O=C[C@H](C[C@@H]1CCNC1=O)NC(=O)[C@H](CC1CCCCC1)NC(=O)c1cc2ccccc2[nH]1
IC50 (Replicase polyprotein 1a): 53 nM

Cc1ccc(C[C@H](NC(=O)[C@@H](Cc2ccccc2)NC(=O)[C@@H](Cc2c[nH]c3ccccc23)NC(=O)[C@@H](N)CCCN)C(=O)N[C@H](Cc2ccccc2)C(=O)N[C@@H](Cc2cn(Cc3ccccc3)cn2)C(N)=O)cc1
IC50 (Candida albicans): 15.3 µg/mL (≈ 15.3 µM)

CCCCc1ccc(-n2cnc(C[C@H](NC(=O)[C@H](Cc3c[nH]c4ccccc34)NC(=O)[C@@H](N)Cc3cn(-c4ccc(CCCC)cc4)cn3)C(=O)NCc3ccccc3)c2)cc1
MIC (Cryptococcus neoformans): 2.46 µg/mL (≈ 2.96 µM)

CC(C)(C)c1cc(Cn2cnc(C[C@H](NC(=O)[C@@H](N)Cc3c[nH]c4ccccc34)C(=O)NCc3ccccc3)c2)cc(C(C)(C)C)c1
MIC (Enterococcus faecalis): 8 µg/mL (≈ 12.6 µM)
MIC (Staphylococcus aureus [3]): 4.4 µg/mL

CC(C)C[C@@H]1NC(=O)[C@@H](Cc2ccccc2)NC(=O)[C@@H](CCN)NC(=O)[C@@H](NC(=O)[C@H](CCN)NC(=O)[C@@H](NC(=O)[C@H](CCN)NC(=O)C[C@H](CN)C2CCCCC2)[C@@H](C)O)CCNC(=O)[C@H]([C@@H](C)O)NC(=O)[C@H](CCN)NC(=O)[C@H](CCN)NC1=O
MIC (Acinetobacter baumannii [4]): 0.25 µg/mL
MIC (Escherichia coli [5]): 0.06 µg/mL
MIC (Pseudomonas aeruginosa [6]): 0.06 µg/mL
MIC (Klebsiella pneumoniae): 0.125 µg/mL

CC[C@H](C)[C@H](NC(=O)[C@H](CC1CCCCC1)NC(=O)[C@@H](Cc1c[nH]c2ccccc12)NC(=O)[C@@H](N)CCCN)C(=O)N[C@H](Cc1ccccc1)C(=O)N[C@@H](Cc1cn(Cc2ccccc2)cn1)C(N)=O
IC50 (Candida albicans): 1 µg/mL (≈ 1.04 µM)

CC(=O)N[C@@H](Cc1c[nH]cn1)C(=O)N[C@H](Cc1ccc(I)cc1)C(=O)N[C@@H](CCCNC(=N)N)C(=O)N1Cc2ccccc2C[C@H]1C(N)=O (Ac-H[dPhe(4-I)]R[Tic]-NH2)
IC50 (Melanocortin receptor 3): 290 nM

CC(=O)N[C@@H](Cc1ccncc1)C(=O)N[C@H](Cc1ccc(I)cc1)C(=O)N[C@@H](CCCNC(=N)N)C(=O)N[C@@H](Cc1c[nH]c2ccccc12)C(N)=O (Ac-[4Pal][dPhe(4-I)]RW-NH2)
IC50 (Melanocortin receptor 3): 7 nM

C=CCCC[C@](C)(NC(=O)[C@H](CCCCN)NC(=O)[C@H](CC(C)C)NC(=O)[C@@H](N)Cc1ccccc1)C(=O)N[C@@H](CC(C)C)C(=O)N[C@@H](CCCCN)C(=O)N[C@@H](CCCCN)C(=O)N[C@@H](CC(C)C)C(=O)N[C@@H](CC(C)C)C(N)=O (H-FLK[S5]LKKLL-NH2)
MIC (Acinetobacter baumannii [7]): 4 µg/mL
MIC (Escherichia coli [8]): 8 µg/mL (≈ 7.01 µM)
MIC (Staphylococcus aureus [9]): 4 µg/mL (≈ 3.51 µM)
MIC (Pseudomonas aeruginosa [10]): 8 µg/mL (≈ 7.01 µM)

CN(CC(=O)O)C(=O)[C@H](Cc1ccccc1)NC(=O)[C@@H](CCCN=C(N)N)NC(=O)[C@@H](N)Cc1ccc(O)cc1 (H-Y[dR]F[Sar]-OH)
EC50 (Mu-type opioid receptor): 90 nM

CC[C@H](C)[C@H](NC(=O)[C@@H](NC(=O)[C@H](N)Cc1ccccc1)C(C)C)C(=O)N[C@@H](C)C(N)=O (H-[dF]VIA-NH2)
inhibition [11]: 100%

CC[C@H](C)[C@H]1C(=O)N[C@@H](C)C(=O)N(C)[C@@H](CC(C)C)C(=O)N[C@@H](Cc2ccc(OC)cc2)C(=O)N(C)[C@H](C)C(=O)O[C@H](C)[C@H](N(C)C(=O)[C@H](CC(C)C)N(C)C(=O)[C@H](COC)N(C)C(=O)[C@@H](OC(=O)[C@H](C(C)C)N(C)C)C(C)C)C(=O)N(C)[C@@H](COC)C(=O)N1C (NMe2Val-[Hiv][NMeS](Me)[NMeL][NMeT][NMeS](Me)[NMeI]A[NMeL]Y(Me)[dNMeA]; ester 4-C)
IC50 (HeLa): 1.4 nM

CCCCCCCC(=O)N[C@@H](Cc1cnc[nH]1)C(=O)N[C@H](Cc1ccccc1)C(=O)N[C@@H](CCCNC(=N)N)C(=O)N[C@@H](Cc1ccc(-c2ccccc2)cc1)C(N)=O (Octanoyl-H[dF]R[Bip]-NH2)
IC50 (Melanocortin receptor 3): 50 nM

N=C(N)NCCC[C@@H]1C(=O)N[C@@H](Cc2ccccc2)C(=O)N(CC(N)=O)CCNC(=O)NCCCCCCN1C(=O)[C@@H](N)Cc1ccc(O)cc1 (mixture of isomers)
EC50 (Mu-type opioid receptor): 46 nM

CC[C@H](C)[C@H]1C(=O)N2CCC[C@H]2C(=O)O[C@H](C(C)(C)C)C[C@@H](C)C[C@H](O)[C@H](C)C2=N[C@@H](CCC(=O)N[C@@H](Cc3ccc(OC)cc3)C(=O)N(C)[C@@H](C)C(=O)N1C)CS2 [APRATOXIN S4]
IC50 (Replicase polyprotein 1a): 170 nM

C[C@@H](O)[C@@H]1NC(=O)[C@H](CCCCN)NC(=O)[C@@H](Cc2c[nH]c3ccccc23)NC(=O)[C@H](Cc2ccccc2)NC(=O)[C@@H](NC(=O)[C@H](N)Cc2ccccc2)CSSC[C@@H](C(=O)N[C@H](CO)[C@@H](C)O)NC1=O [OCTREOTIDE]
half-life [12]: 1.5 h

Nc1nc2[nH]cc(CCc3ccc(C(=O)N[C@@H](CCC(=O)O)C(=O)O)cc3)c2c(=O)[nH]1 [PEMETREXED]
IC50 [13]: 42 nM

H-FLKLLKKLL-NH2
MIC (Acinetobacter baumannii [7]): 16 µg/mL
MIC (Escherichia coli [8]): 32 µg/mL
MIC (Staphylococcus aureus [9]): 16 µg/mL
MIC (Pseudomonas aeruginosa [10]): 8 µg/mL

H-KKKKKKAAFAAWAAFAA-NH2
MIC (Escherichia coli [14]): 1.6 µM

H-KRHRKVLR-OH
Kd [15]: 46000 nM
